Laboratory results published in patent US11530190B2, “Compounds for treating mitochondrial disease” (Khondrion IP B.V., priority 2015, dated 2022).

What was measured:
[1] = system: cultured healthy human skin fibroblasts; conditions: cited from earlier work
[2] = system: primary human fibroblasts derived from a Complex-I deficient patient; assay: Protection against oxidative stress-induced (BSO) cell death, Calcein-AM viability; type: cell-based
From the text: (§1) Methods: To assess the ability of the compounds to protect patient cells against oxidative stress-induced cell death an assay was established using stressed primary human fibroblasts derived from a Complex-I deficient patient. Utilizing the inherent oxidative stress of fibroblasts from patients with mitochondrial disease, their oxidative burden was further increased by depleting cellular glutathione with an inhibitor of glutathione synthesis, L-buthionine-(S,R)-sulfoximine (BSO).
Cells were seeded at a density of 3000 cells/well in a 96-well format plate and incubated with increasing concentrations of compounds in combination with BSO (200 μM, Sigma-Aldrich). Two days after treatment, the cells were washed twice and stained with a solution of 5 μM Calcein-AM (Life technologies C3100MP) during 25 min in 199 medium without phenol red (Life technologies, 11043-023) at 37° C., 5% CO2. After 2 washes with PBS the plate was read on a fluorescence plate reader (Fluostar Omega, BMG labtech) and the percentage of cell viability was determined as a function of fluorescence intensity (FIG. 2).

[3] = system: fibroblasts from healthy individuals; assay: Effect of BSO on viability of fibroblasts from healthy individuals, Calcein-AM; type: cell-based, human; conditions: BSO 200 μM, 48 h; FIG. 1
Method: FIG. 1. Effect of L-buthionine-(S,R)-sulfoximine (BSO), an inhibitor of glutathione synthesis, on the viability of primary human fibroblasts derived from healthy individuals or derived from Complex-I deficient patients. Two days after treatment of 48 h with 200 μM BSO, cells were washed and stained with Calcein-AM. Cell viability was determined as a function of fluorescence intensity.
as §1

[4] = system: Primary human fibroblasts derived from a patient with mitochondrial disease; assay: Cellular ROS levels after H2O2 induction, CM-H2DCFDA fluorescence; type: cell-based; conditions: compound 10 μM, H2O2 100 μM; FIG. 3
From the text: Methods: CM-H2DCFDA is a cell-permeable reporter molecule for reactive oxygen species (ROS) that is converted into non-fluorescent and membrane-impermeable CM-H2DCF following removal of its acetate groups by intracellular esterases. Upon oxidation by ROS, CM-H2DCF is converted into fluorescent CM-DCF. It is widely accepted that a wide variety of ROS can be responsible for the CM-H2DCF oxidation, making it a suitable reporter of cellular oxidant levels. The average cellular CM-DCF fluorescence intensity is considered an indirect measure of cellular ROS levels.
The effect of the compounds on the intracellular ROS levels was measured in response to an induction of ROS by hydrogen peroxide. Primary human fibroblasts derived from a patient with mitochondrial disease were seeded at a density of 2500 cells/well in a 96-well format plate. […] Wells without cells were used to correct for the background fluorescence. The plate was read on a fluorescence plate reader (Fluostar Omega, BMG labtech) in a kinetic mode with a 2 min interval cycle. After 4 cycles, H2O2 (final concentration 100 μM) was added using onboard injectors and the fluorescence measurement was resumed for 1 hour. After background correction the fluorescence intensities were plotted as a function of time.

[5] = system: Primary human fibroblasts obtained from a patient with mitochondrial disease; assay: Intracellular superoxide production, hydroethidine (HEt) fluorescence microscopy; type: cell-based; conditions: approximately 24 hours with increasing concentrations, HEt 10 μM; FIG. 4A-E
Method: Methods: HEt (Hydroethidine) is a non-fluorescent compound, which can enter the cells freely. There it is oxidized by superoxide to its fluorescent products E^+ and 2OHE^+, which accumulate in negatively charged cellular compartments (i.e. nucleus and mitochondria). E^++2OHE^+ fluorescence is thus considered a measure of superoxide production within the cell.
The effect of the compounds on the intracellular superoxide levels was measured. Primary human fibroblasts obtained from a patient with mitochondrial disease were seeded at a density of 3000 cells/well in a 96-well format. The following day, the culture medium was replaced with 100 μl medium containing the compounds at different concentrations. After approximately 24 hours the cells were incubated with 100 μL medium without FBS and phenol red and containing HEt at a final concentration 10 μM (Life Technologies). The cell culture plate containing HEt was placed for 10 minutes at 37° C., 5% CO2. Next, the cells were washed twice with medium, placed in culture medium without FBS and phenol red and visualized by fluorescence microscopy (BD Pathway 855, BDBiosciences). From the obtained images superoxide levels were analysed using Image Pro plus (Media Cybernetics) software.

Row | SMILES | H2O2-mediated induction of cellular ROS levels (CM-DCF fluorescence) [4] | superoxide scavenging / superoxide levels (HEt fluorescence) [5] | further results
1 | Cc1c(C)c2c(c(C)c1O)CCC(C)(C(=O)O)O2 (centres unmarked) [Trolox, 6-hydroxy-2,5,7,8-tetramethylchroman-2-carboxylic acid] |  |  | levels of ROS [1]: reduces the levels of ROS
2 | CCCCS(=N)(=O)CCC(N)C(=O)O [BSO, L-buthionine-(S,R)-sulfoximine] |  |  | viability of patient fibroblasts after BSO insult ([2]; BSO 200 μM alone, within 48 h, FIG. 1): complete cell death; viability of fibroblasts from healthy individuals after BSO insult [3]: retained full viability
3 | CC(C)=CCC/C(C)=C/CC/C(C)=C/CC[C@@](C)(O)CCC1=C(C)C(=O)C(C)=C(C)C1=O [EPI743] | slightly diminished | only a limited ability to scavenge superoxide | EC50 ([2]; 200 μM BSO, two days, Calcein-AM cell viability, formate salt, read-out: EC50 in protecting the cells against oxidative stress-induced cell death): 35.3 nM
4 | COC1=C(OC)C(=O)C(CCCCCCCCCCO)=C(C)C1=O [Idebenone] | slightly diminished | only a limited ability to scavenge superoxide | 
